Data published in patent US20230136600A1, “Method and device for screening antigen epitope polypeptide” (priority 2020, published 2023).

What was measured:
[1] = system: Balb/c mice; assay: Detection of peptide immunogenicity by polypeptide chip: vaccine peptide-specific signal sequencing (timing-sequence response, Fisher exact test); type: in vivo; details: Embodiment IV; 7-peptide mixed solution with adjuvant: Mix 1 AddaVax, 2 Imject Alumn, 3 Alhydrogel, 4 Adju-Phos, 5 MA103A, 6 MA103B
[2] = system: Balb/c mice; assay: Polypeptide chip-based vaccine immunogenicity scoring system; type: in vivo; parameters: key to A2: whether the 95 percentile of the last sampling is increased compared with the end point: Y = rise; N = no rise; details: Embodiment III, polypeptide-KLH; for A1: difference between a highest median and a D 0 median (95 percentile) / A2: whether the 95 percentile of the last sampling is increased compared with the end point: Mix1-10; for Total single peptide: A*3 + B*2 + C*1; for A: 95 percentile grouping number score / B: Mouse performance score: total score = 5; for C1: #A timing-sequence response peptide fragment set / C2: #B vaccine specificity peptide fragment set / C3: Intersection of A and B / C4: Percentage of the intersection in set B / C: Timing-sequence response and specificity score: value of the whole mix

Row | Substance | #A timing-sequence response peptide fragment set [1] | #B vaccine specificity peptide fragment set [1] | Intersection of A and B [1] | Mode I [1] | Mode II [1] | B1: D 0-D 14 95 percentile rise in the number of mice [2] | B2: D 0-D 21 95 percentile rise in the number of mice [2] | B3: D 14-D 21 95 percentile rise in the number of mice [2] | B4: D 21-D 28 95 percentile rise in the number of mice [2] | A1: difference between a highest median and a D 0 median (95 percentile) [2] | A2: whether the 95 percentile of the last sampling is increased compared with the end point [2] | Total single peptide [2] | A: 95 percentile grouping number score [2] | B: Mouse performance score [2] | C1: #A timing-sequence response peptide fragment set [2] | C2: #B vaccine specificity peptide fragment set [2] | C3: Intersection of A and B [2] | C4: Percentage of the intersection in set B [2] | C: Timing-sequence response and specificity score [2]
1 | 4 (ALDPLSETKCT; SARS-CoV-2) [compound 4] | 203 | 1244 | 0 | 23 | 183 | – | – | – | – | – | – | – | – | – | – | – | – | – | –
2 | 5 (GRLQSLQTY; SARS-CoV-2) [compound 5] | 260 | 1244 | 3 | 102 | 171 | – | – | – | – | – | – | – | – | – | – | – | – | – | –
3 | 2 (RGGSYTNDKAC; SARS-CoV-2) [compound 2] | 100 | 1244 | 3 | 74 | 31 | – | – | – | – | – | – | – | – | – | – | – | – | – | –
4 | KVFRSSVLHSTQ [SEQ ID NO:6] | – | – | – | – | – | 3 | 3 | 0 | 2 | 0.09 | Y | 16.3 | 4 | 1.9 | 1212 | 389 | 1 | 0.257 | 0.5
5 | ERSEKSYEL (SARS-CoV-2) [SEQ ID NO:28] | – | – | – | – | – | 1 | 2 | 0 | 1 | 0.11 | N | 14.3 | 4 | 0.9 | 1212 | 389 | 1 | 0.257 | 0.5
6 | DNQDLNGNWY (SARS-CoV-2) [SEQ ID NO:31] | – | – | – | – | – | 2 | 3 | 2 | 0 | 0.93 | N | 14.2 | 3.5 | 1.6 | 511 | 364 | 1 | 0.275 | 0.5
7 | QELGKYEQY (SARS-CoV-2) [SEQ ID NO:38] | – | – | – | – | – | 3 | 3 | 2 | 1 | 0.10 | Y | 18.2 | 4.5 | 2.1 | 352 | 541 | 1 | 0.185 | 0.5
8 | 3 (SVYAWNRKR; SARS-CoV-2) [compound 3] | 123 | 1244 | 2 | 73 | 53 | – | – | – | – | – | – | – | – | – | – | – | – | – | –
9 | GRLQSLQTY (SARS-CoV-2) [SEQ ID NO:5] | – | – | – | – | – | 3 | 2 | 0 | 2 | 0.11 | Y | 18.9 | 5 | 1.7 | 133 | 431 | 1 | 0.232 | 0.5
10 | 1 (YTNDKACPL; SARS-CoV-2) [compound 1] | 237 | 1244 | 0 | 87 | 157 | – | – | – | – | – | – | – | – | – | – | – | – | – | –
